These results are taken from publication PMC9629705, “Canonical strigolactones are not the major determinant of tillering but important rhizospheric signals in rice” (Science Advances, 2022).

One assay addresses T1, OsMAX1-900 (Oryza sativa, UniProt M9R6D3).
T1 construct: gene Os01g0700900
T1 sequence (M9R6D3 1-539): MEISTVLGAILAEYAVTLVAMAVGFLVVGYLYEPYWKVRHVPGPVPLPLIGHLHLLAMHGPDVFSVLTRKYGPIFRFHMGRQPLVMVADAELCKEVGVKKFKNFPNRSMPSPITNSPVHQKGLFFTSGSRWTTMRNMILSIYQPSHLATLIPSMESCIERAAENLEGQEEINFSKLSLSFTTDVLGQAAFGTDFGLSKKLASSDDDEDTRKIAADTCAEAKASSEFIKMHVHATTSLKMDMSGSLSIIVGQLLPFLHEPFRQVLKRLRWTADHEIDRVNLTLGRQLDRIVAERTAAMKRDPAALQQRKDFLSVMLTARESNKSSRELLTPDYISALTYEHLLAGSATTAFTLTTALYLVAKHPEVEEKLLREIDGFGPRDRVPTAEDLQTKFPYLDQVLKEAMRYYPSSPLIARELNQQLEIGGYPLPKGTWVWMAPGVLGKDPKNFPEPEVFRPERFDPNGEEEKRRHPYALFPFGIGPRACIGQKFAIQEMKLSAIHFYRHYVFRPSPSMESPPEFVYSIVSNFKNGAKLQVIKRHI
In words: LC-MS/MS enzyme assay (CL to CLA, CLA to 4DO) with microsomes of yeast overexpressing the enzyme. The assay is classed as biochemical.

In the next assay the target is T2, OsMAX1-1400 (Oryza sativa, UniProt W5QV10).
T2 construct: gene Os01g0701400
T2 sequence (W5QV10 1-541): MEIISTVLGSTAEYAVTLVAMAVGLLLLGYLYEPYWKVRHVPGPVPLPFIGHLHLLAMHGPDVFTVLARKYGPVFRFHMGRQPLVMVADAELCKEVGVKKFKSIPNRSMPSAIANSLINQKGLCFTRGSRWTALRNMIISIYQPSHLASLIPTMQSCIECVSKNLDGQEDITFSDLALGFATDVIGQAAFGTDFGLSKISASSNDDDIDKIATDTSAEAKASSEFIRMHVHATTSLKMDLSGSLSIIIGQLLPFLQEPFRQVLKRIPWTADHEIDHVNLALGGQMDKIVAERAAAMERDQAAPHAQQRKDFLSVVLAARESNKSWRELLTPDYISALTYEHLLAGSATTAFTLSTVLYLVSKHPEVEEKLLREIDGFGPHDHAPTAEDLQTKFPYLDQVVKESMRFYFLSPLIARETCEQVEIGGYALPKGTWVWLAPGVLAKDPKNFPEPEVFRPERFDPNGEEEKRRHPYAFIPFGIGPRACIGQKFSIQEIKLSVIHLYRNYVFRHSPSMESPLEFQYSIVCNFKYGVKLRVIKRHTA
In words: LC-MS/MS enzyme assay (4DO to orobanchol) with microsomes of yeast overexpressing the enzyme. The assay is classed as biochemical.

In general, IC50 refers to the concentration that gives 50% inhibition.

Molecules are shown by their SMILES.

`O=C(c1ccccc1)C(CCCCOc1ccccc1)n1cncn1` (centres unmarked) [TIS108]: the IC50 was determined as 150 nM against OsMAX1-900 and 20 nM on OsMAX1-1400.
